Measured values as given in the supplement of paper PMC10627819.

Key:
[1] = test system: S. aureus Newman; assay: Bliss interaction score (quartile over a dose matrix) (fitness difference); higher = more antagonism (negative = synergy)
How it was run: (§1)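 Quartiles summarise the Bliss score over technical, biological and donor/recipient replicates, where the score is observed minus expected fitness under a product model. Expected fitness uses single-drug values inferred from combination data. Fitness is OD595 at entry into stationary phase over the plate's robust no-drug mean, capped at 1.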

[2] = test system: S. pneumoniae D39V; assay: as above
How it was run: as §1

[3] = test system: S. aureus DSM 20231; assay: as above
How it was run: as §1

[4] = test system: B. subtilis 168; assay: as above
How it was run: as §1

[5] = test system: B. subtilis 168; assay: fitness (endpoint OD595 vs no drug) (fraction); higher = more growth
How it was run: (§2)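 Growth medium was TSB, LB Lennox or CY, and plates were kept at 37 °C. Inoculation was at OD595 0.01 in 384-well plates, at 30 µl per well or 55 µl for S. pneumoniae. OD595 was monitored every 30 min for 14 h and background-subtracted using the first reading. Fitness is the optical density on entering stationary phase divided by the robust mean of no-drug controls, with values capped at 1.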

[6] = test system: S. pneumoniae D39V; assay: as above
How it was run: as §2
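Throughout, for Bliss interaction score (quartile over a dose matrix): first quartile when negative (synergy) and third quartile when positive (antagonism).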

COc1c(N2C[C@@H]3CCCN[C@@H]3C2)c(F)cc2c(=O)c(C(=O)O)cn(C3CC3)c12 [Moxifloxacin] + CO[C@@H]1[C@@H](OC(N)=O)[C@@H](O)[C@H](Oc2ccc3c(O)c(NC(=O)c4ccc(O)c(CC=C(C)C)c4)c(=O)oc3c2C)OC1(C)C [Novobiocin]
Settings	Bliss interaction score
[1]	-0.113
[2]	0.0943
[3]	-0.0723
[4]	-0.0346

fitness, [5]
Settings	first compound 0.0312 µg/mL	first compound 0.0625 µg/mL	first compound 0.125 µg/mL	first compound 2 µg/mL	first compound 4 µg/mL	first compound 8 µg/mL
partner 0.0125 µg/mL	–	–	–	0.0294	0.0275	0.0124
partner 0.025 µg/mL	–	–	–	0.016	0.0146	0.0125
partner 0.05 µg/mL	0.0425	0.0373	0.0299	0.0168	0.0053	0.0129
partner 0.1 µg/mL	0.0335	0.0227	0.0176	–	–	–
partner 0.2 µg/mL	0.0331	0.0211	0.0159	–	–	–

fitness, [5], one replicate
Settings	first compound 0.0312 µg/mL	first compound 0.0625 µg/mL	first compound 0.125 µg/mL
partner 0.125 µg/mL	0.0427	0.0166	0.0119
partner 0.25 µg/mL	0.0377	0.0432	0.0101
partner 0.5 µg/mL	0.0342	0.0161	0.011

O=C1CN(/N=C/c2ccc([N+](=O)[O-])o2)C(=O)N1 [Nitrofurantoin] + C[n+]1ccc(-c2cc[n+](C)cc2)cc1 [Paraquat]
Settings	Bliss interaction score
[1]	0.0529
[2]	0.0462
[3]	0.0244
[4]	0.0514

fitness, [6]
Settings	partner 1.5 µg/mL	partner 3 µg/mL	partner 6 µg/mL
first compound 1.285 µg/mL	0.949	0.959	0.941
first compound 2.57 µg/mL	0.961	0.953	0.945

fitness, [6], one replicate
Settings	first compound 2 µg/mL	first compound 4 µg/mL	first compound 5.14 µg/mL	first compound 8 µg/mL
partner 1.5 µg/mL	0.988	0.983	0.909	0.859
partner 3 µg/mL	0.965	0.968	0.927	0.871
partner 6 µg/mL	0.981	≥ 1	0.894	0.909

O=C1CN(/N=C/c2ccc([N+](=O)[O-])o2)C(=O)N1 [Nitrofurantoin] + Cc1cc(NS(=O)(=O)c2ccc(N)cc2)no1 [Sulfamethoxazol]
Settings	Bliss interaction score
[1]	0.0591
[2]	0.049
[3]	-0.0311
[4]	0.0955

fitness, [6]
Settings	partner 1 µg/mL	partner 2 µg/mL	partner 4 µg/mL
first compound 1.285 µg/mL	0.952	0.957	0.91
first compound 2.57 µg/mL	0.942	0.948	0.944

fitness, [6], one replicate
Settings	first compound 2 µg/mL	first compound 4 µg/mL	first compound 5.14 µg/mL	first compound 8 µg/mL
partner 1 µg/mL	0.937	0.944	0.92	0.805
partner 2 µg/mL	0.929	0.934	0.929	0.833
partner 4 µg/mL	0.842	0.859	0.927	0.768

O=C1CN(/N=C/c2ccc([N+](=O)[O-])o2)C(=O)N1 [Nitrofurantoin] + Cc1onc(-c2ccccc2)c1C(=O)N[C@@H]1C(=O)N2[C@@H]1SC(C)(C)[C@@H]2C(=O)O [Oxacillin]
Settings	Bliss interaction score
[1]	0.0474
[2]	0.162
[3]	-0.0421
[4]	0.0329

fitness, [6]
Settings	first compound 1.285 µg/mL	first compound 2 µg/mL	first compound 2.57 µg/mL	first compound 4 µg/mL	first compound 8 µg/mL
partner 0.01 µg/mL	0.955	0.928	0.958	0.932	0.802
partner 0.02 µg/mL	0.959	0.873	0.944	0.864	0.798
partner 0.04 µg/mL	0.761	0.475	0.754	0.531	0.53

[6], first compound 5.14 µg/mL, one replicate
Settings	fitness
partner 0.01 µg/mL	0.955
partner 0.02 µg/mL	0.967
partner 0.04 µg/mL	0.795

O=C1CN(/N=C/c2ccc([N+](=O)[O-])o2)C(=O)N1 [Nitrofurantoin] + Cn1nnc(-c2ccc(-c3ccc(N4C[C@H](CO)OC4=O)cc3F)cn2)n1 [Tedizolid]
Settings	Bliss interaction score
[1]	-0.0562
[2]	-0.141
[3]	-0.0543
[4]	-0.0546

fitness, [6]
Settings	first compound 1.285 µg/mL	first compound 2 µg/mL	first compound 2.57 µg/mL	first compound 4 µg/mL	first compound 8 µg/mL
partner 0.03125 µg/mL	–	0.948	–	0.957	0.951
partner 0.0625 µg/mL	–	0.893	–	0.915	0.859
partner 0.125 µg/mL	0.805	0.767	0.812	0.775	0.771
partner 0.25 µg/mL	0.724	–	0.676	–	–
partner 0.5 µg/mL	0.258	–	0.217	–	–

[6], first compound 5.14 µg/mL, one replicate
Settings	fitness
partner 0.125 µg/mL	0.791
partner 0.25 µg/mL	0.589
partner 0.5 µg/mL	0.18

C/C(=C\C(=O)OCCCCCCCCC(=O)O)C[C@@H]1OC[C@H](C[C@@H]2O[C@H]2[C@@H](C)[C@H](C)O)[C@@H](O)[C@H]1O [Pseudomonic acid] + CO[C@H]1/C=C/O[C@@]2(C)Oc3c(C)c(O)c4c(O)c(c(/C=N/N5CCN(C)CC5)c(O)c4c3C2=O)NC(=O)/C(C)=C\C=C\[C@H](C)[C@H](O)[C@@H](C)[C@@H](O)[C@@H](C)[C@H](OC(C)=O)[C@@H]1C [Rifampicin]
Settings	Bliss interaction score
[1]	-0.0134
[2]	0.14
[3]	0.0229
[4]	0.0416

[6], partner 0.025 µg/mL, one replicate
Settings	fitness
first compound 0.03 µg/mL	0.872
first compound 0.06 µg/mL	0.79
first compound 0.12 µg/mL	0.742

[6], first compound 0.12 µg/mL
Settings	fitness
partner 0.05 µg/mL	0.608
partner 0.2 µg/mL	0.136
